Laboratory results from US12577231B2, “Androgen receptor PROTACS” (GlaxoSmithKline Intellectual Property Development Limited, priority 2023, dated 2026).

Molecular target: T1, Androgen Receptor protein in human LnCaP cells (Homo sapiens, UniProt P10275, T878A)
T1 construct: the AR gene was modified, using CRISPR/Cas9 editing, so the expressed AR protein included an 11 amino acid HiBiT tag; endogenous in cells; host or cells: clonal LnCaP derived cell line, endogenous AR gene edited by CRISPR/Cas9
T1 sequence (P10275 1-920 T878A): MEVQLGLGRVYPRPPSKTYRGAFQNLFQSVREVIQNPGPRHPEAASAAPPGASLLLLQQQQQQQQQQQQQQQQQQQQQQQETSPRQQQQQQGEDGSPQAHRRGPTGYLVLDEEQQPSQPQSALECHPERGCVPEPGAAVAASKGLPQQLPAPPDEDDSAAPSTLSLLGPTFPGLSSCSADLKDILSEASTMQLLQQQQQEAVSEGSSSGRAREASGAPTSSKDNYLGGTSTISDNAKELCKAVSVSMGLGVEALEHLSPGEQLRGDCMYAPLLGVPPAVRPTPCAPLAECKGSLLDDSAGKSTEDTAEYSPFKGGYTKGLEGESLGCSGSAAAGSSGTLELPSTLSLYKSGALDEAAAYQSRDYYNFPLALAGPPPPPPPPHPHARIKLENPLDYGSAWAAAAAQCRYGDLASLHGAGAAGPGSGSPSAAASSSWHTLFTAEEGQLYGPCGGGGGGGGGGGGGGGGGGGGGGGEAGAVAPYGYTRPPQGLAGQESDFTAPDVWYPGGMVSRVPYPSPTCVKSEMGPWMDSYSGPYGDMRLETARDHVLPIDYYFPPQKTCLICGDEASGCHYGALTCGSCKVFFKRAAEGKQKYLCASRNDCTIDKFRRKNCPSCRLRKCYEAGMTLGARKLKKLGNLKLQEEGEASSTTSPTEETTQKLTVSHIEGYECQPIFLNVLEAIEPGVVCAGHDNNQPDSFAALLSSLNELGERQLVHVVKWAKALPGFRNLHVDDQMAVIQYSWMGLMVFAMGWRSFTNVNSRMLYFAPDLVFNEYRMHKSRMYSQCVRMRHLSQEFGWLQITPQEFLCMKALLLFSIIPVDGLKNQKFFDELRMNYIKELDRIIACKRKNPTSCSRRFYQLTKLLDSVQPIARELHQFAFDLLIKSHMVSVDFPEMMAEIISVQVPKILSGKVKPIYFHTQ
Test: Androgen Receptor Degradation Assay (Nano-Glo HiBiT, LnCaP cells)
Format: cell-based
Conditions: 18 h, HiBiT-tagged AR LnCaP cells, 18 h incubation, fitted curve asymptote maximum of degradation, read-out: mean asymptote max
Procedure: Degradation of Androgen Receptor protein in human LnCaP cells treated with PROTACs was quantified using the Nano-Glo® HiBiT Lytic Detection System (Promega) in 384 well assay plate format. A clonal LnCaP derived cell line was first established in which the AR gene was modified, using CRISPR/Cas9 editing, so the expressed AR protein included an 11 amino acid HiBiT tag at its amino-terminus. 10 mM DMSO stock solutions of PROTACs were prepared and diluted across an 11 concentration, 3 fold increment range, and 25 nL dispensed into a white opaque bottomed 384 well assay plate (Thermofisher) using an acoustic ECHO dispenser (Labcyte). Cells were grown in cell culture medium (RPMI 1640 supplemented with 15% FBS, penicillin 50U/mL and streptomycin 50 ug/mL (Thermofisher)). For the assay, cells were detached from flask and resuspended with assay medium (FluoroBrite™ DMEM supplemented with 10% heat inactivated FBS, penicillin 50U/mL and streptomycin 50 ug/mL (Thermofisher)). The cell suspension was centrifuged at 400 g for 5 min and the pellet resuspended in assay medium. 25 μL of cell suspension containing 10,000 cells was dispensed into each well of the assay plate containing a serial dilution of test compounds, which was then incubated for 18 h at 37° C./5% CO2. Control wells were included on each assay plate, with assay medium without cells being the no AR remaining 100% effect control, and cells treated with DMSO vehicle only, without PROTAC, the 0% effect control. 25 μL of Nano-Glo® HiBiT lysis buffer supplemented with LgBiT protein and Nano-Glo® substrate (Promega) was added to each well and the plate shaken at 500 rpm for 10 min at room temperature. The intensity of luminescence was measured using a PHERAstar microplate reader (BMG Labtech) and the % AR protein remaining in each well calculated by normalising the raw luminescence value to the above control wells. Parameters corresponding to the potency and efficacy estimates of the PROTACs were obtained from these normalised luminescence values using software (IDBS ActivityBase). These included the DC50 (concentration at which 50% of protein was degraded in M) and the Dmax (maximal degradation, in %) estimates. Two versions of the DC50, called relative DC50 and absolute DC50, were generated. These are the inflection point of a fitted 4 parameter sigmoidal response curve and the interpolated concentration of PROTAC corresponding to 50% of the protein being degraded, respectively. The corresponding pDC50 is reported as −log10(relative […]). The Dmax parameter was the maximum experimentally observed degradation and the asymptote max parameter the fitted response curve asymptote maximum.

Compound | Dmax [%]
COc1cc(O[C@H]2C(C)(C)[C@H](NC(=O)c3ccc(N4CCC(CN5CC[C@@H](n6ncc7c(N8CCC(=O)NC8=O)cccc76)[C@@H](F)C5)CC4)c(F)c3)C2(C)C)ccc1C#N [Example 27, N-((1r,3r)-3-(4-Cyano-3-methoxyphenoxy)-2,2,4,4-tetramethylcyclobutyl)-4-(4-(((3,4R)-4-(4-(2,4-dioxotetrahydropyrimidin-1(2H)-yl)-1H-indazol-1-yl)-3-fluoropiperidin-1-yl)methyl)piperidin-1-yl)-3-fluorobenzamide] | ≥ 50
CC1(C)[C@H](NC(=O)c2ccc(N3CCC(CN4CCC(n5ccc6c(N7CCC(=O)NC7=O)ncnc65)CC4)CC3)cc2)C(C)(C)[C@H]1Oc1ccc(C#N)c2ncccc12 [Example 28, N-((1r,3r)-3-((8-Cyanoquinolin-5-yl)oxy)-2,2,4,4-tetramethylcyclobutyl)-4-(4-((4-(4-(2,4-dioxotetrahydropyrimidin-1(2H)-yl)-7H-pyrrolo[2,3-d]pyrimidin-7-yl)piperidin-1-yl)methyl)piperidin-1-yl)benzamide] | ≥ 50
CC1(C)[C@H](NC(=O)c2ccc(N3CC[C@@H](CN4CCC(n5ncc6c(N7CCC(=O)NC7=O)cccc65)CC4)C3)c(F)c2)C(C)(C)[C@H]1Oc1ccc(C#N)c2ncccc12 [Example 33, N-((1r,3S)-3-((8-Cyanoquinolin-5-yl)oxy)-2,2,4,4-tetramethylcyclobutyl)-4-((S)-3-((4-(4-(2,4-dioxotetrahydropyrimidin-1(2H)-yl)-1H-indazol-1-yl)piperidin-1-yl)methyl)pyrrolidin-1-yl)-3-fluorobenzamide] | ≥ 50
CC1(C)[C@H](NC(=O)c2ccc(N3CCC(CN4CCC(n5ncc6c(N7CCC(=O)NC7=O)c(F)ccc65)CC4)CC3)c(F)c2)C(C)(C)[C@H]1Oc1ccc(C#N)c(Cl)c1 [Example 13, N-((1r,3r)-3-(3-Chloro-4-cyanophenoxy)-2,2,4,4-tetramethylcyclobutyl)-4-(4-((4-(4-(2,4-dioxotetrahydropyrimidin-1(2H)-yl)-5-fluoro-1H-indazol-1-yl)piperidin-1-yl)methyl)piperidin-1-yl)-3-fluorobenzamide] | ≥ 50
CC1(C)[C@H](NC(=O)c2ccc(N3CCC(CN4CCC(n5ncc6c(N7CCC(=O)NC7=O)cccc65)CC4)CC3)c(F)c2)C(C)(C)[C@H]1Oc1cnc(C#N)c(Cl)c1 [Example 3, N-((1r,3r)-3-((5-Chloro-6-cyanopyridin-3-yl)oxy)-2,2,4,4-tetramethylcyclobutyl)-4-(4-((4-(4-(2,4-dioxotetrahydropyrimidin-1(2H)-yl)-1H-indazol-1-yl)piperidin-1-yl)methyl)piperidin-1-yl)-3-fluorobenzamide] | ≥ 50
CC1(C)[C@H](NC(=O)c2cc(F)c(N3CCC(CN4CCC(n5ncc6c(N7CCC(=O)NC7=O)cccc65)CC4)CC3)c(F)c2)C(C)(C)[C@H]1Oc1ccc(C#N)c2ncccc12 [Example 30, N-((1r,3r)-3-((8-Cyanoquinolin-5-yl)oxy)-2,2,4,4-tetramethylcyclobutyl)-4-(4-((4-(4-(2,4-dioxotetrahydropyrimidin-1(2H)-yl)-1H-indazol-1-yl)piperidin-1-yl)methyl)piperidin-1-yl)-3,5-difluorobenzamide] | ≥ 50

Further lines, results first:

Dmax [%] | Compound
≥ 50 | CC1(C)[C@H](NC(=O)c2ccc(N3CCC(CN4CCC(n5ccc6c(N7CCC(=O)NC7=O)c(F)ccc65)CC4)CC3)c(F)c2)C(C)(C)[C@H]1Oc1ccc(C#N)c2ncccc12 [Example 51, N-((1r,3r)-3-((8-Cyanoquinolin-5-yl)oxy)-2,2,4,4-tetramethylcyclobutyl)-4-(4-((4-(4-(2,4-dioxotetrahydropyrimidin-1(2H)-yl)-5-fluoro-1H-indol-1-yl)piperidin-1-yl)methyl)piperidin-1-yl)-3-fluorobenzamide]
≥ 50 | CC1(C)[C@H](NC(=O)c2ccc(N3CCC(O)(CN4CCC(n5ncc6c(N7CCC(=O)NC7=O)cccc65)CC4)CC3)c(F)c2)C(C)(C)[C@H]1Oc1ccc(C#N)c2ncccc12 [Example 48, N-((1r,3r)-3-((8-Cyanoquinolin-5-yl)oxy)-2,2,4,4-tetramethylcyclobutyl)-4-(4-((4-(4-(2,4-dioxotetrahydropyrimidin-1(2H)-yl)-1H-indazol-1-yl)piperidin-1-yl)methyl)-4-hydroxypiperidin-1-yl)-3-fluorobenzamide]
≥ 50 | CC1(C)[C@H](NC(=O)c2ccc(N3CCC(CN4CCC(n5ncc6c(N7CCC(=O)NC7=O)cccc65)CC4)CC3)c(Cl)c2)C(C)(C)[C@H]1Oc1ccc(C#N)c2ncccc12 [Example 44, 3-Chloro-N-((1r,3r)-3-((8-cyanoquinolin-5-yl)oxy)-2,2,4,4-tetramethylcyclobutyl)-4-(4-((4-(4-(2,4-dioxotetrahydropyrimidin-1(2H)-yl)-1H-indazol-1-yl)piperidin-1-yl)methyl)piperidin-1-yl)benzamide]
≥ 50 | CC1(C)[C@H](NC(=O)c2ccc(N3CCC(CN4CCC(n5ncc6c(N7CCC(=O)NC7=O)cc(C(F)(F)F)cc65)CC4)CC3)c(F)c2)C(C)(C)[C@H]1Oc1ccc(C#N)c2ncccc12 [Example 42, N-((1r,3r)-3-((8-Cyanoquinolin-5-yl)oxy)-2,2,4,4-tetramethylcyclobutyl)-4-(4-((4-(4-(2,4-dioxotetrahydropyrimidin-1(2H)-yl)-6-(trifluoromethyl)-1H-indazol-1-yl)piperidin-1-yl)methyl)piperidin-1-yl)-3-fluorobenzamide]
≥ 50 | CC1(C)[C@H](NC(=O)c2ccc(N3CCC(CN4CCC(n5ncc6c(N7CCC(=O)NC7=O)ccnc65)CC4)CC3)c(F)c2)C(C)(C)[C@H]1Oc1ccc(C#N)c2ncccc12 [Example 40, N-((1r,3r)-3-((8-Cyanoquinolin-5-yl)oxy)-2,2,4,4-tetramethylcyclobutyl)-4-(4-((4-(4-(2,4-dioxotetrahydropyrimidin-1(2H)-yl)-1H-pyrazolo[3,4-b]pyridin-1-yl)piperidin-1-yl)methyl)piperidin-1-yl)-3-fluorobenzamide]
≥ 50 | CC1(C)[C@H](NC(=O)c2ccc(N3CCC(CN4CC[C@@H](n5ncc6c(N7CCC(=O)NC7=O)cccc65)[C@@H](F)C4)CC3)c(F)c2)C(C)(C)[C@H]1Oc1ccc(C#N)c2ncccc12 [Example 45, N-((1r,3r)-3-((8-Cyanoquinolin-5-yl)oxy)-2,2,4,4-tetramethylcyclobutyl)-4-(4-(((35,4R)-4-(4-(2,4-dioxotetrahydropyrimidin-1(2H)-yl)-1H-indazol-1-yl)-3-fluoropiperidin-1-yl)methyl)piperidin-1-yl)-3-fluorobenzamide]
